Laboratory results published in a melting point compilation (Tetko et al.; mined from patent text by program, amines drawn as free bases though some values may be those of a salt).

| melting point [°C] | Structure (SMILES) |
| --- | --- |
| 140 to 142 | COc1ccc2c3c(c(=O)oc2c1)CN(Cc1ccc(Cl)cc1)CC3 |
| 175 to 176 | O=C(NCc1ccccc1)c1ccnc(NC(=O)c2ccccc2F)c1 |
| 126 to 127 | C/C(=C\CO)c1ccc(OCc2nc(-c3ccccc3)oc2C)cc1 |
| 45.9 to 50.8 | CCCCCCCCCCCCCCCCC[C@@H]1OC[C@@H](COCCCCCCCCOS(=O)(=O)c2ccc(C)cc2)O1 (relative stereo) |
| > 250 | CS(=O)(=O)c1c(C(=O)NN=Cc2ccc3ccccc3c2)[nH]c2ccccc12 |
| > 250 | COc1cc2c(cn1)OCC21C(=O)N(CC2CCCO2)c2ccccc21 (stereo not given) |
| 238 to 246 | O=S1(=O)NC(C2CCCCC2)Nc2ccc(-c3cccc(O)c3)cc21 (stereo not given) |
| 220 to 225 | CC(C)c1cc2n(CCc3ccccc3)cc(C(=O)O)c(=O)n2n1 |
| 54 to 56 | c1ccc(C2COc3ccccc3C2)cc1 (stereo not given) |
| 227 to 229 | COc1ccc(-c2cc3ncc(C#N)c(Nc4ccc(Sc5nccn5C)c(Cl)c4)c3cc2OC)cc1 |
| 125 to 128 | CC(C)(C)OC(=O)Nc1ccc(-c2cccc(F)c2)cc1N |
| 207 | CCOC(=O)c1ncc2[nH]c3cccc(Oc4ccc(Cl)cc4)c3c2c1COC |
| 86 to 87 | Fc1cccc(F)c1-c1nc(/C=C/c2ccc(C3CCCCC3)cc2)no1 |
| 147 to 149 | CC(=O)Nc1nnc2c3c(c(N4CCOCC4)nn12)CCCC3 |
| 105 to 107 | CC1(C)CON(CC2=C(Cl)CC(=NCc3ccccc3O)C=C2)C1=O |
| 228 to 229 | CCOC(=O)CNC(=O)c1n[nH]cc1NC(=O)c1cccc(C)n1 |
| 104 to 106 | CCCc1c(C)[nH]c(C(=O)OCC)c1C |
| 97 to 98 | O=C1CCCCC1C(=S)Nc1ccc(Cl)cc1F (stereo not given) |
| 81.5 to 83 | C=CCn1c(-c2ccccc2[N+](=O)[O-])nc2ccccc21 |
| 205 | CS(=O)(=O)C(=C1CN(C(c2ccccc2)c2ccccc2)C1)c1cccc(Cl)c1 |
| 108 to 110 | Cc1[nH]cnc1C=CC(=O)c1cn2c3c(cccc13)CCC2 |
| > 250 | COc1cc2ncc(C#N)c(Nc3ccc(C(N)=O)cc3)c2cc1OC |
| 204 | COc1cc(C(=O)N2Cc3ccc(C(=O)NCc4ccccc4C)n3Cc3ccccc32)ccc1-c1ccccc1C |
| 195 to 196 | N#Cc1ccc(Cc2cccc3c2CCN(Cc2cncn2Cc2ccc(C#N)cc2)C3)cc1 |
| 245 to 247 | Cc1cccc(NC(=O)NC2C(=O)N(C)c3ccccc3N(C34CC5CC(CC(C5)C3)C4)C2=O)c1 (stereo not given) |

| melting point [°C] | Structure (SMILES) |
| --- | --- |
| 109 to 110 | OC1CCCCC1Oc1cccc(COc2cccc3cccnc23)c1 (stereo not given) |
| 110 to 111 | CC(=O)OCCn1nc(-c2cc(C(C)(C)C)c(O)c(C(C)(C)C)c2)c2c(C)cc(C)nc21 |
| 80 to 81 | COc1c(Cl)cc(N)cc1Cl |
| 239 to 241 | CN1c2cc(Cl)ccc2-c2nc3ccccc3c3cc(OS(=O)(=O)C(F)(F)F)cc1c23 |
| 107 to 109 | COC(=O)c1cc(C)sc1NC(=O)Cc1ccccc1 |
| 63 to 65 | O=[N+]([O-])OCCNC(=S)Cc1ccccc1 |
| 100 | CC12CCC3=C(CCC(CCCC#N)O3)C1=CCC2=O (stereo not given) |
| 57 to 59 | CCc1ccc(N)c(C(=O)c2ccccc2)c1 |
| 134 to 136 | NCc1ccc2sc3ccccc3c(=O)c2c1 |
| 135 to 137 | COc1ccc(Cl)c(C(=O)NCCc2ccc(S(=O)(=O)NC(=O)c3ccc(C(=O)NCCO)nc3)cc2)c1 |
| 211 to 212 | CC(C)(C)OC(=O)CN1C(=O)C(N2C(=O)c3ccccc3C2=O)CSCC1c1cccs1 (stereo not given) |
| 169 to 171 | CC1Cc2c(c(Cl)cc(F)c2N2C(=O)C3=C(CCCC3)C2=O)O1 (stereo not given) |
| 249 to 251 | COc1ccc(-n2c(=O)c(C(=O)C3=C(O)CCCC3=O)nc3c(Cl)cccc32)cc1 |
| 155 to 157 | CN(Cc1ccccc1)CC1CN(c2c(F)cc3c(=O)c(C(=O)O)cn(C4CC4)c3c2F)CCO1 (stereo not given) |
| 203 to 206 | Nc1nnc2ccc(-c3ccco3)nn12 |
| 120 to 122 | CSc1ccc2cc(O)ccc2c1 |
| 85 to 86 | COc1c(F)c(NCc2ccccc2)c(F)c(OC)c1C(=O)O |
| 164 to 167 | NC(=S)c1sc(-c2ccccc2)nc1N |
| 171 to 172 | CC(=O)c1ccc(CC2SC(=O)NC2=O)cc1 (stereo not given) |
| 180 to 181 | CC(C)(C)OC(=O)NC1CCCC2(CCCC2)NC1=O (stereo not given) |
| 158 to 160 | CC1(N2C(=O)c3cccc(NCc4ccco4)c3C2=O)CCC(=O)NC1=O (stereo not given) |
| 151 to 152 | Cc1cc(C)n(-c2nnc(-c3ccc(Cl)cc3)c(C)n2)n1 |
| 80 to 82 | Cc1cc([N+](=O)[O-])ccc1Oc1cncc(Cl)c1 |
| > 210 | CC(=O)c1c[nH]c2nccc(OCC3CCCCC3)c12 |
| 169 to 170 | CCN1C(=O)C(C)(C)C(=O)N(C)c2cc(CN(CCn3cc(C)c4occc4c3=O)Cc3cc(COC)nn3C)ccc21 |

| melting point [°C] | Structure (SMILES) |
| --- | --- |
| 139 to 141 | NC(=NCCc1ccccn1)Nc1ccc(Br)cn1 |
| 238 | COc1cc(-c2cnc3[nH]cc(C(=O)O)c3n2)cc(OC)c1OC |
| 99 to 100 | OCc1cccc2c1CCc1ccsc1-2 |
| 110 | CCOC(=O)Nc1ccc(Cl)nc1 |
| 179 to 181 | O=C(O)C=Cc1cccc2cc[nH]c12 |
| 112 to 114 | CC(C)N(CCn1c(-c2ccc(O)cc2)cc2c1CCCC2)C(C)C |
| 178 to 181 | Cc1cccc(Nc2ncnc3cnc(NC4CCN(C#N)CC4)nc23)c1 |
| 213 to 216 | COc1ccc2c(c1)CCC1CCNC(=O)C(CC(=O)NC(C)C)=C21 (stereo not given) |
| 173 to 175 | CC(C)CC(NC(=O)Cc1ccc(NC(=O)Nc2ccccn2)cc1)c1ncc(C(C)C(=O)O)s1 (stereo not given) |
| 56 to 59 | COc1ccc(C2=CCC(=O)CC2)c2c1OCCO2 |
| 275 to 277 | Cc1nccc2[nH]c(=O)c(C#N)cc12 |
| 215 to 217 | CC(C)C(S)C(=O)NC1(C(=O)NC(Cc2ccc(-c3ccsc3)nc2)C(=O)O)CCCC1 (stereo not given) |
| 150 | CCC(=O)Oc1cc(-c2nc3cc(F)ccc3s2)ccc1OC |
| 241 to 242 | O=C1Nc2ccccc2C(=NO)C1=O |
| 253 | O=c1[nH]c2ccccc2c(=O)n1CCN1CCC(c2noc3cc(F)ccc23)CC1 |
| 105 to 107 | CS(=O)(=O)c1ncc(F)c(NCc2ccccc2F)n1 |
| 207 to 209 | CSC1=C([N+](=O)[O-])CCN1 |
| 108 | O=C(C=Cc1ccccc1)CC(=O)c1ccccc1 |
| 110 | CC(C)Oc1ccc(C=O)cc1OCCN1C(=O)c2ccccc2C1=O |
| 84 to 86 | C1CNCCCNCCCNCCCNC1 |
| 156 to 157 | Cc1cn(COC(CO)CO)c(=O)[nH]c1=O |
| 212 to 214 | CCOC(=O)c1oc2cc(O)c(O)cc2c1C |
| 297 to 298 | O=C1c2ccccc2-c2cc(O)cc3cccc1c23 |
| 224 to 227 | COc1ncc(-c2nn(C(C)c3oc4ccccc4c(=O)c3-c3cccc(F)c3)c3ncnc(N)c23)cn1 (stereo not given) |
| 236 to 238 | Cn1nc(-c2cccc(N3Cc4cc(C(C)(C)C)ccc4C3=O)c2CO)cc(Nc2ccncn2)c1=O |

| melting point [°C] | Structure (SMILES) |
| --- | --- |
| 95 to 98 | Cc1cc2c(cc1C(F)(F)F)N(Cc1ccc(C(=O)O)cc1)CCC[C@@H]2N(Cc1cc(C(F)(F)F)cc(C(F)(F)F)c1)c1nnn(C)n1 |
| 180 to 187 | NS(=O)(=O)Cc1ccc(NCC(=O)N2CCC(Oc3ccc(Cl)cc3)CC2)cc1 |
| 178 to 179 | Fc1ccc(-c2ncn(C3CCNCC3)c2-c2cccnc2Oc2ccc(OCc3ccccc3)cc2)cc1 |
| 145 to 149 | CC(=O)Nc1nc(/C=C/C(=O)N2CCN(C(=O)c3cc(C(F)(F)F)cc(C(F)(F)F)c3)[C@H](Cc3ccc(C)c(C)c3)C2)cs1 |
| 325 | FC(F)(F)c1c[nH]c(-c2ccc(-c3nc(C(F)(F)F)c[nH]3)cc2)n1 |
| 194 to 195 | O=S(=O)(c1cccs1)N(CC(F)(F)F)c1cccc2cc(-c3nccs3)[nH]c12 |
| 78 to 79 | CCOC(=O)C(CC)C(=O)N1NCCCC1C(=O)OC(C)(C)C (stereo not given) |
| 130 to 131 | CC(C)NCC(O)COc1ncc(Br)nc1N(C)C (stereo not given) |
| 99 | CCOC(=O)N=C(N)c1ccc(OCc2cccc(COc3ccc(C(C)(C)c4ccccc4)cc3)c2)cc1 |
| 179 | Fc1ccccc1[C@]1(Cn2nc[nH]c2=S)O[C@H]1c1ccccc1Cl (racemic) |
| 132 to 135 | COc1ccc(CNc2nnc(NCCCO)c3ccc(C#N)cc23)cc1Cl |
| 168 | COc1ccc(-c2nnc(NC3CCN(Cc4ccccc4)CC3)c3cc(OC)cc(OC)c23)cc1 |
| 218 to 220 | O=C(O)c1ccc(=O)n(CCCNC(=O)c2cccnc2)c1 |
| 99 to 101 | COC(=O)Cc1sc(F)c(N=c2sc(=O)n3n2CCCC3)c1Cl |
| 174 | Cc1nn(C)c(C)c1-c1cncc(OC2SCC(O)C(O)C2O)c1 (stereo not given) |
| 125 to 128 | Cc1ccc(S(=O)(=O)NC(=O)n2sc(Cl)cc2=O)cc1 |
| 153 to 157 | CCOC(=O)Cc1c(-c2cccnc2)c2cc(CN3CCN(c4ccccc4)CC3)c(Cl)cc2oc1=O |
| 86 to 91 | CCOC(=O)C1C(=O)N(C)c2ccc(Cl)cc2S1(=O)=O (stereo not given) |
| 62.4 to 63.6 | CCCCC(CC)Cn1c2ccc(Br)cc2c2cc(Br)ccc21 (stereo not given) |
| 115 to 117 | COc1ccc(-c2nc(Sc3ccc(C)cc3)n(Cc3ccccc3)c2-c2ccc(OC)cc2)cc1 |
| > 300 | CCc1ccc(S(=O)(=O)c2c(N)c3nncn3c3nc4ccccc4nc23)cc1 |
| 134 to 136 | C[C@@H](O)Cn1ncc2ccc(O)c(Br)c21 |

| Structure (SMILES) | melting point [°C] |
| --- | --- |
| N#Cc1cc(C2=NOC(c3cc(Cl)cc(Cl)c3)(C(F)(F)F)C2)ccc1-n1cncn1 (stereo not given) | 118 to 125 |
| Clc1ccc(OC(c2ccc(Cl)cc2)C(Cl)(Cl)Cl)cc1 (stereo not given) | 101 |
| NNC(=O)c1cccc(Cc2c[nH]cn2)c1O | 190 |
